Assay results from patent publication US9695155B2, “Herbicidal substituted pyrimidinyloxy benzene compounds” (E. I. DU PONT DE NEMOURS AND COMPANY, priority 2013, dated 2017).

Assays:
morningglory = experiment: Test A preemergence; format: in vivo, Ipomoea spp.
Summary of the method: (§1)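 Greenhouse pot test, loam/sand soil. Formulation: non-phytotoxic solvent mix plus surfactant. Pre: directed spray onto soil after sowing. Post: plants at 1–2 leaf, 2–10 cm. Rated visually vs untreated controls at ~10 d, 0 (no effect) to 100 (complete control).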

pigweed [1] = experiment: Test A preemergence; format: in vivo, Amaranthus retroflexus; settings: Amaranthus retroflexus, pre-emergence
Summary of the method: as §1

wheat [2] = experiment: Test A preemergence; format: in vivo, Triticum aestivum
Summary of the method: as §1

pigweed [3] = experiment: Test A postemergence; format: in vivo, Amaranthus retroflexus; settings: Amaranthus retroflexus, post-emergence
Summary of the method: as §1

wheat [4] = experiment: Test A postemergence; format: in vivo, Triticum aestivum; settings: Triticum aestivum, post-emergence, 240 h
Summary of the method: as §1

sedge, umbrella = experiment: Test B flooded paddy test; format: in vivo, Cyperus difformis; settings: Cyperus difformis, Flood, 250 g ai/ha; 0 to 100 scale where 0 is no effect and 100 is complete control; read-out: Plant response rating, Sedge, Umbrella
Summary of the method: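 Scores from 0 (no effect) to 100 (complete control) are visual comparisons with controls, taken 13 to 15 days after compound was applied into floodwater 3 cm deep around 2-leaf plants.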

Italian ryegrass = experiment: Test C preemergence; format: in vivo, Lolium multiflorum; settings: Lolium multiflorum, pre-emergence
Summary of the method: (§2)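 Injury was assessed visually against controls 13 to 15 days after application, with 0 meaning no effect and 100 full control; missing entries are shown as a dash. Preemergence sprays hit seeded loam–sand soil, postemergence sprays hit 1- to 4-leaf plants.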

galium = experiment: Test C preemergence; format: in vivo, Galium aparine; settings: Galium, pre-emergence
Summary of the method: as §2

large (Lg) crabgrass = experiment: Test C postemergence; format: in vivo, Digitaria sanguinalis; settings: Digitaria sanguinalis, post-emergence
Summary of the method: as §2

giant foxtail = experiment: Test C postemergence; format: in vivo, Setaria faberii; settings: Setaria faberi, post-emergence
Summary of the method: as §2

johnsongrass = experiment: Test C postemergence; format: in vivo, Sorghum halepense; settings: Sorghum halepense, post-emergence
Summary of the method: as §2

yellow nutsedge = experiment: Test C postemergence; format: in vivo, Cyperus esculentus; settings: Cyperus, post-emergence
Summary of the method: as §2

soybean = experiment: Test C postemergence; format: in vivo, Glycine max; settings: Glycine max, post-emergence
Summary of the method: as §2

oilseed rape = experiment: Test C postemergence; format: in vivo, Brassica napus; settings: Brassica napus, post-emergence
Summary of the method: as §2

velvetleaf = experiment: Test C postemergence; format: in vivo, Abutilon theophrasti; settings: Abutilon theophrasti, post-emergence
Summary of the method: as §2

[5] = 125 g ai/ha, 0 to 100 scale where 0 is no effect and 100 is complete control
[6] = 125 g ai/ha, 0 to 100 scale where 0 is no effect and 100 is complete control, read-out: Plant response rating, Pigweed

N#Cc1cccc(Oc2ncc(Br)cn2)c1-n1cc(C(F)(F)F)cn1 [Compound 59, 3-[(5-bromo-2-pyrimidinyl)oxy]-2-[4-(trifluoromethyl)-1H-pyrazol-1-yl]benzonitrile]
Plant response rating, Morningglory (morningglory; [5]): 80 | pest or weed control at 500 g/ha (morningglory; Ipomoea, pre-emergence, 240 h, 500 g ai/ha, 0 to 100 scale, 0 no effect, 100 complete control, approx. 10 days, read-out: Morningglory plant response rating): 100% | pest or weed control at 125 g/ha (pigweed [1]; [6]): 100% | pest or weed control at 500 g/ha (pigweed [1]; 240 h, 500 g ai/ha, 0 to 100 scale, 0 no effect, 100 complete control, approx. 10 days, read-out: Pigweed plant response rating): 100% | Plant response rating, Wheat (wheat [2]; [5]): 20 | plant injury at 500 g/ha (wheat [2]; Triticum aestivum, pre-emergence, 240 h, 500 g ai/ha, 0 to 100 scale, 0 no effect, 100 complete control, approx. 10 days, read-out: Wheat plant response rating): 40% | pest or weed control at 125 g/ha (pigweed [3]; [6]): 100% | pest or weed control at 500 g/ha (pigweed [3]; 240 h, 500 g ai/ha, 0 to 100 scale, 0 no effect, 100 complete control, read-out: Plant response rating Pigweed): 100% | plant injury at 125 g/ha (wheat [4]; 125 g ai/ha, 0 to 100 scale where 0 is no effect and 100 is complete control, read-out: Plant response rating, Wheat): 70% | plant injury at 500 g/ha (wheat [4]; 500 g ai/ha, 0 to 100 scale, 0 no effect, 100 complete control, read-out: Plant response rating Wheat): 100% | pest or weed control at 250 g/ha (sedge, umbrella): 90% | pest or weed control at 62 g/ha (Italian ryegrass; 62 g ai/ha, preemergence, scale 0 (no effect) to 100 (complete control), read-out: Ryegrass, Italian plant response rating): 85% | pest or weed control at 125 g/ha (Italian ryegrass; 125 g ai/ha, preemergence, scale 0 (no effect) to 100 (complete control), read-out: Ryegrass, Italian plant response rating): 90% | pest or weed control at 250 g/ha (Italian ryegrass; 250 g ai/ha, preemergence, scale 0 (no effect) to 100 (complete control), read-out: Ryegrass, Italian plant response rating): 90% | pest or weed control at 31 g/ha (Italian ryegrass; Preemergence, 31 g ai/ha, scale 0 to 100, 0 no effect, 100 complete control, read-out: Plant response rating, Ryegrass, Italian): 50% | pest or weed control at 62 g/ha (galium; 62 g ai/ha, preemergence, scale 0 (no effect) to 100 (complete control), read-out: Galium plant response rating): 100% | pest or weed control at 125 g/ha (galium; 125 g ai/ha, preemergence, scale 0 (no effect) to 100 (complete control), read-out: Galium plant response rating): 100% | pest or weed control at 250 g/ha (galium; 250 g ai/ha, preemergence, scale 0 (no effect) to 100 (complete control), read-out: Galium plant response rating): 100% | pest or weed control at 31 g/ha (galium; Preemergence, 31 g ai/ha, scale 0 to 100, 0 no effect, 100 complete control, read-out: Plant response rating, Galium): 100% | pest or weed control at 125 g/ha (large (Lg) crabgrass; 125 g ai/ha, postemergence, read-out: Plant response rating (0 to 100), Crabgrass, Large): 30% | pest or weed control at 250 g/ha (large (Lg) crabgrass; 250 g ai/ha, postemergence, read-out: Plant response rating (0 to 100), Crabgrass, Large): 40% | pest or weed control at 31 g/ha (large (Lg) crabgrass; Postemergence, 31 g ai/ha, scale 0 to 100 (0 no effect, 100 complete control), 13 to 15 days, read-out: Plant response rating, Crabgrass, Large): 10% | pest or weed control at 62 g/ha (large (Lg) crabgrass; Postemergence, 62 g ai/ha, scale 0 to 100 (0 no effect, 100 complete control), read-out: Plant response rating, Crabgrass, Large): 10% | pest or weed control at 125 g/ha (giant foxtail; 125 g ai/ha, postemergence, read-out: Plant response rating (0 to 100), Foxtail, Giant): 45% | pest or weed control at 250 g/ha (giant foxtail; 250 g ai/ha, postemergence, read-out: Plant response rating (0 to 100), Foxtail, Giant): 90% | pest or weed control at 31 g/ha (giant foxtail; Postemergence, 31 g ai/ha, scale 0 to 100 (0 no effect, 100 complete control), 13 to 15 days, read-out: Plant response rating, Foxtail, Giant): 10% | pest or weed control at 62 g/ha (giant foxtail; Postemergence, 62 g ai/ha, scale 0 to 100 (0 no effect, 100 complete control), read-out: Plant response rating, Foxtail, Giant): 45% | pest or weed control at 125 g/ha (johnsongrass; 125 g ai/ha, postemergence, read-out: Plant response rating (0 to 100), Johnsongrass): 35% | pest or weed control at 250 g/ha (johnsongrass; 250 g ai/ha, postemergence, read-out: Plant response rating (0 to 100), Johnsongrass): 85% | pest or weed control at 31 g/ha (johnsongrass; Postemergence, 31 g ai/ha, scale 0 to 100 (0 no effect, 100 complete control), 13 to 15 days, read-out: Plant response rating, Johnsongrass): 15% | pest or weed control at 62 g/ha (johnsongrass; Postemergence, 62 g ai/ha, scale 0 to 100 (0 no effect, 100 complete control), read-out: Plant response rating, Johnsongrass): 35% | pest or weed control at 125 g/ha (yellow nutsedge; 125 g ai/ha, postemergence, read-out: Plant response rating (0 to 100), Nutsedge, Yellow): 5% | pest or weed control at 250 g/ha (yellow nutsedge; 250 g ai/ha, postemergence, read-out: Plant response rating (0 to 100), Nutsedge, Yellow): 10% | pest or weed control at 31 g/ha (yellow nutsedge; Postemergence, 31 g ai/ha, scale 0 to 100 (0 no effect, 100 complete control), 13 to 15 days, read-out: Plant response rating, Nutsedge, Yellow): 0% | pest or weed control at 62 g/ha (yellow nutsedge; Postemergence, 62 g ai/ha, scale 0 to 100 (0 no effect, 100 complete control), read-out: Plant response rating, Nutsedge, Yellow): 5% | Soybean plant response rating (crop injury, 0-100 scale) at 125 g/ha (soybean; 125 g ai/ha, postemergence, read-out: Plant response rating (0 to 100), Soybean): 98% | Soybean plant response rating (crop injury, 0-100 scale) at 250 g/ha (soybean; 250 g ai/ha, postemergence): 98% | Soybean plant response rating (crop injury, 0-100 scale) at 31 g/ha (soybean; Postemergence, 31 g ai/ha, scale 0 to 100 (0 no effect, 100 complete control), 13 to 15 days): 75% | Soybean plant response rating (crop injury, 0-100 scale) at 62 g/ha (soybean; Postemergence, 62 g ai/ha, scale 0 to 100 (0 no effect, 100 complete control)): 85% | plant injury at 125 g/ha (oilseed rape; 125 g ai/ha, postemergence, read-out: Plant response rating (0 to 100), Oilseed Rape): 85% | plant injury at 250 g/ha (oilseed rape; 250 g ai/ha, postemergence, read-out: Plant response rating (0 to 100), Oilseed Rape): 95% | plant injury at 31 g/ha (oilseed rape; Postemergence, 31 g ai/ha, scale 0 to 100 (0 no effect, 100 complete control), 13 to 15 days, read-out: Plant response rating, Oilseed Rape): 50% | plant injury at 62 g/ha (oilseed rape; Postemergence, 62 g ai/ha, scale 0 to 100 (0 no effect, 100 complete control), read-out: Plant response rating, Oilseed Rape): 50% | pest or weed control at 125 g/ha (velvetleaf; 125 g ai/ha, postemergence, read-out: Plant response rating (0 to 100), Velvetleaf): 55% | pest or weed control at 250 g/ha (velvetleaf; 250 g ai/ha, postemergence, read-out: Plant response rating (0 to 100), Velvetleaf): 70% | pest or weed control at 31 g/ha (velvetleaf; Postemergence, 31 g ai/ha, scale 0 to 100 (0 no effect, 100 complete control), 13 to 15 days, read-out: Plant response rating, Velvetleaf): 15% | pest or weed control at 62 g/ha (velvetleaf; Postemergence, 62 g ai/ha, scale 0 to 100 (0 no effect, 100 complete control), read-out: Plant response rating, Velvetleaf): 30%
